Assay: Inhibition of NLRP3 inflammasome activation in PMA-treated human THP-1 cells assessed as ASC-SPECK formation preincubated for 1 hr followed by gramicidin addition and measured after 3 hrs by immunofluorescence staining based assay
Format: cell-based

Row | Compound | EC50
1 | CCN1CC[C@@]2(C)CCN(c3nnc(-c4ccc(C(F)(F)F)cc4O)c(C)n3)[C@@]2(C)C1 | 5 nM
2 | Cc1nc(N2CC[C@]3(C)CCN(C)C[C@]23C)nnc1-c1ccc(Cl)cc1O | 4 nM
3 | Cc1nc(N2CC[C@]3(C)CCN(C)C[C@]23C)nnc1-c1ccc(OC(F)(F)F)cc1O | 5 nM
4 | Cc1nc(N2CC[C@]3(C)CCN(C)C[C@]23C)nnc1-c1ccc(C2CC2)cc1O | 7 nM
5 | Cc1nc(N2CC[C@]3(C)CCN(C)C[C@]23C)nnc1-c1ccc(C(F)(F)F)cc1O | 5 nM
6 | Cc1cc(O)c(-c2nnc(N3CC[C@]4(C)CCN(C)C[C@]34C)nc2C)c(F)c1 | 5 nM
